In patent publication US11066414B2, “Cot modulators and methods of use thereof” (Gilead Sciences, Inc., priority 2015, dated 2021):

tested on: TNFα; test: Cot Monocyte TNFα Cell Based Assay; settings: Homo sapiens, Monocyte, read-out: EC50 TNF, LPS-stimulated human monocytes, TNFα

EC50 | Molecule
185 nM | COc1ccc([C@H](Nc2cc(Cl)c3ncc(C#N)c(Nc4ccc(F)c(Cl)c4)c3c2)c2cn(C3CCN(C(C)(C)C)CC3)nn2)cn1 [Example 290, (S)-6-(((1-(1-(tert-butyl)piperidin-4-yl)-1H-1,2,3-triazol-4-yl)(6-methoxy-pyridin-3-yl)methyl)amino)-8-chloro-4-((3-chloro-4-fluorophenyl)amino)-quinoline-3-carbonitrile]
211 nM | N#Cc1cnc2c(Cl)cc(N[C@@H](c3cccnc3)c3cn(C4CC4)nn3)cc2c1Nc1cnc(F)c(F)c1 [Example 206, (S)-8-chloro-6-(((1-cyclopropyl-1H-1,2,3-triazol-4-yl)(pyridin-3-yl)methyl)amino)-4-((5,6-difluoropyridin-3-yl)amino)quinoline-3-carbonitrile]
811 nM | Cc1ccc([C@H](Nc2cc(Cl)c3ncc(C#N)c(Nc4ccc(F)c(Cl)c4)c3c2)c2cn(C(C)C)nn2)cn1 [Example 280, (S)-8-chloro-4-((3-chloro-4-fluorophenyl)amino)-6-(((1-isopropyl-1H-1,2,3-triazol-4-yl)(6-methylpyridin-3-yl)methyl)amino)quinoline-3-carbonitrile]
253 nM | [2H]C(Nc1cc(Cl)c2ncc(C#N)c(N[C@H](CC)c3ccccc3)c2c1)(c1cn(C2CC2)nn1)c1cc(F)cnc1C (stereo partly drawn) [Example 113, 8-chloro-6-(((1-cyclopropyl-1H-1,2,3-triazol-4-yl)(5-fluoro-2-methylpyridin-3-yl)methyl-d)amino)-4-(((R)-1-phenylpropyl)amino)quinoline-3-carbonitrile]
609 nM | CCN1CCC(n2cc([C@@H](Nc3cc(Cl)c4ncc(C#N)c(Nc5ccc(F)c(Cl)c5)c4c3)c3cccs3)nn2)CC1 [Example 380, (R)-8-chloro-4-((3-chloro-4-fluoro-phenyl)amino)-6-(((1-(1-ethylpiperidin-4-yl)-1H-1,2,3-triazol-4-yl)(thiophen-2-yl)methyl)amino)quinoline-3-carbonitrile]
154 nM | Cn1ccc2c([C@H](Nc3cc(C#N)c4ncc(C#N)c(NCC(C)(C)C)c4c3)c3cn(C4(C(F)(F)F)CC4)nn3)ccnc21 [Example 664, (S)-6-(((1-methyl-1H-pyrrolo[2,3-b]pyridin-4-yl)(1-(1-(trifluoromethyl)cyclopropyl)-1H-1,2,3-triazol-4-yl)methyl)amino)-4-(neopentylamino)quinoline-3,8-dicarbonitrile]
178 nM | Cc1nc(F)ccc1[C@H](Nc1cc(Cl)c2ncc(C#N)c(NCC(C)(C)CO)c2c1)c1cn(C2(C(F)F)CC2)nn1 [Example 746, (S)-8-chloro-6-(((1-(1-(difluoromethyl)cyclopropyl)-1H-1,2,3-triazol-4-yl)(6-fluoro-2-methylpyridin-3-yl)methyl)amino)-4-((3-hydroxy-2,2-dimethylpropyl)amino)quinoline-3-carbonitrile]
941 nM | N#Cc1cnc2c(Cl)cc(N[C@@H](c3cccnc3)c3cn(CC(F)(F)F)nn3)cc2c1Nc1cnc(F)c(F)c1 [Example 209, (S)-8-chloro-4-((5,6-difluoropyridin-3-yl)amino)-6-((pyridin-3-yl(1-(2,2,2-trifluoroethyl)-1H-1,2,3-triazol-4-yl)methyl)amino)quinoline-3-carbonitrile]
838 nM | Cc1nc(F)ccc1[C@H](Nc1cc(C#N)c2ncc(C#N)c(NC3CCCCC3)c2c1)c1cn(C2(C(F)(F)F)CC2)nn1 [Example 585, (S)-4-(cyclohexylamino)-6-(((6-fluoro-2-methylpyridin-3-yl)(1-(1-(trifluoromethyl)-cyclopropyl)-1H-1,2,3-triazol-4-yl)methyl)amino)quinoline-3,8-dicarbonitrile]

same assay, conditions: read-out: EC50 TNF; LPS-stimulated human monocytes, TNFα

EC50 | Molecule
230 nM | Cc1ncccc1[C@H](Nc1cc(Cl)c2ncc(C#N)c(N[C@H](C)c3ccccc3)c2c1)c1cn(C2CCN(C(C)(C)C)CC2)nn1 [Example 231]

same assay, conditions: read-out: EC50 TNF; LPS-stimulated human monocytes, TNFα TR-FRET

EC50 | Molecule
1000 nM | 6-(((6-fluoro-2-methylpyridin-3-yl)(1-((1- (trifluoromethyl)cyclopropyl)-1H-1,2,3- triazol-4-yl)methyl)amino)-8-(3-hydroxy- 3-methylbutyl-1-yl)-4- (neopentylamino)quinoline-3-carbonitrile [Example 982]
